What was measured:
Details in all cases: 72 h
U2OS [1] = assay: drug sensitivity score (DSS) for viability; higher = more toxic; extreme values may be limits of the assay
Vero E6 [2] = assay: as above
Caco-2 [3] = assay: as above
Calu-3 [4] = assay: as above
HepG2 [5] = assay: as above
U2OS [6] = assay: cell viability relative to DMSO; higher = less toxic
Vero E6 [7] = assay: as above
Caco-2 [8] = assay: as above
Calu-3 [9] = assay: as above
HepG2 [10] = assay: as above
U2OS [11] = assay: relative viability EC50 (midpoint between 100% and the lowest measured viability); higher = less toxic
Vero E6 [12] = assay: as above
Caco-2 [13] = assay: as above
Calu-3 [14] = assay: as above
HepG2 [15] = assay: as above

Structure (SMILES) | drug sensitivity score (U2OS [1]) | drug sensitivity score (Vero E6 [2]) | drug sensitivity score (Caco-2 [3]) | drug sensitivity score (Calu-3 [4]) | drug sensitivity score (HepG2 [5]) | cell viability (U2OS [6]; 1 nM) | cell viability (U2OS [6]; 10 nM) | cell viability (U2OS [6]; 100 nM) | cell viability (U2OS [6]; 1000 nM) | cell viability (U2OS [6]; 10000 nM) | cell viability (Vero E6 [7]; 1 nM) | cell viability (Vero E6 [7]; 10 nM) | cell viability (Vero E6 [7]; 100 nM) | cell viability (Vero E6 [7]; 1000 nM) | cell viability (Vero E6 [7]; 10000 nM) | cell viability (Caco-2 [8]; 1 nM) | cell viability (Caco-2 [8]; 10 nM) | cell viability (Caco-2 [8]; 100 nM) | cell viability (Caco-2 [8]; 1000 nM) | cell viability (Caco-2 [8]; 10000 nM) | cell viability (Calu-3 [9]; 1 nM) | cell viability (Calu-3 [9]; 10 nM) | cell viability (Calu-3 [9]; 100 nM) | cell viability (Calu-3 [9]; 1000 nM) | cell viability (Calu-3 [9]; 10000 nM) | cell viability (HepG2 [10]; 1 nM) | cell viability (HepG2 [10]; 10 nM) | cell viability (HepG2 [10]; 100 nM) | cell viability (HepG2 [10]; 1000 nM) | cell viability (HepG2 [10]; 10000 nM) | relative viability EC50 (U2OS [11]) | relative viability EC50 (Vero E6 [12]) | relative viability EC50 (Caco-2 [13]) | relative viability EC50 (Calu-3 [14]) | relative viability EC50 (HepG2 [15])
CC(ONC(=O)c1cc(C(F)(F)F)cc(C(F)(F)F)c1)C(=O)Nc1ccc(Cl)cc1 (stereo not given) [CCG-1423] | 0 | 0 | 0 | 0 | 0 | 100% | 98.6% | 105% | 99.6% | 101% | 101% | 99.4% | 99% | 105% | 99.2% | 99.9% | 97.9% | 91.4% | 97.4% | 88.6% | 96.4% | 89.5% | 85% | 95.1% | 98.7% | 108% | 99.4% | 94.9% | 96.8% | 89.2% | > 10 µM | > 10 µM | > 10 µM | > 10 µM | > 10 µM
c1ccc(Oc2cccnc2)cc1 [CI-844] | 0 | 0 | 0 | 0 | 0 | 100% | 103% | 94.9% | 97.2% | 96.1% | 101% | 103% | 100% | 99.8% | 98.7% | 96% | 97.6% | 90.4% | 93.1% | 93.2% | 104% | 101% | 89.9% | 94.1% | 106% | 102% | 103% | 94.3% | 97.4% | 106% | > 10 µM | > 10 µM | > 10 µM | > 10 µM | > 10 µM
CC[C@H](CO)Nc1nc(NCc2ccc(-c3ccccn3)cc2)c2ncn(C(C)C)c2n1 [CR8-(R)] | 17.9 | 19.9 | 14.3 | 14.6 | 27.5 | 100% | 93.3% | 99.8% | 0.2% | 4.8% | 90.2% | 99.3% | 85.8% | 2.9% | 9.3% | 101% | 97.1% | 86.5% | 34.5% | 34.1% | 104% | 80% | 87% | 31.3% | 39.9% | 88.7% | 102% | 17.2% | 0.7% | 8.8% | 0.315 µM | 0.201 µM | 0.172 µM | 0.184 µM | 0.0531 µM
CNc1ccc([N+](=O)[O-])cc1-n1cnc(-c2ccc(C(F)(F)F)cc2)c1 [CU-T12-9] | 0 | 0 | 0 | 0 | 0 | 103% | 103% | 96.2% | 98.2% | 100% | 103% | 96.4% | 100% | 101% | 102% | 95.4% | 105% | 96.8% | 101% | 101% | 104% | 90.9% | 93.8% | 94.9% | 94.9% | 108% | 104% | 93.8% | 95.4% | 91.3% | > 10 µM | > 10 µM | > 10 µM | > 10 µM | > 10 µM
CC(=O)N[C@@H](CSSC[C@H](NC(C)=O)C(=O)O)C(=O)O [D-7193] | 0 | 0 | 0 | 0 | 0 | 95.1% | 96.2% | 98.6% | 98.2% | 101% | 107% | 106% | 100% | 103% | 99.2% | 100% | 96.1% | 104% | 92% | 100% | 93.5% | 83.4% | 103% | 95.6% | 110% | 108% | 88.5% | 108% | 98.9% | 98% | > 10 µM | > 10 µM | > 10 µM | > 10 µM | > 10 µM
CC(C)N(C[C@H]1O[C@@H](n2cnc3c(N)ncnc32)[C@H](O)[C@@H]1O)[C@H]1C[C@@H](CCc2nc3cc(C(C)(C)C)ccc3[nH]2)C1 [EPZ-5676] | 0 | 0 | 0 | 0 | 0 | 105% | 97.5% | 101% | 102% | 111% | 106% | 106% | 98.9% | 102% | 106% | 90.7% | 99.2% | 100% | 97.1% | 101% | 101% | 102% | 95.4% | 104% | 104% | 106% | 94.9% | 89.7% | 105% | 108% | > 10 µM | > 10 µM | > 10 µM | > 10 µM | > 10 µM
Cc1cccc(-c2[nH]c(CNc3ccccc3F)nc2-c2ccc3ncnn3c2)n1 [EW-7197] | 0.1 | 0 | 0 | 0 | 0 | 99.1% | 99.4% | 94.4% | 95.5% | 85.5% | 102% | 105% | 102% | 95.4% | 98.7% | 95.7% | 96.4% | 94.1% | 109% | 99.4% | 97.3% | 88.4% | 96.9% | 114% | 105% | 95.1% | 104% | 106% | 103% | 93.3% | > 10 µM | > 10 µM | > 10 µM | > 10 µM | > 10 µM

Source: the supplement of paper PMC13380429
